From article PMC5669356, “Continuous degradation of maltose by enzyme entrapment technology using calcium alginate beads as a matrix” (Biochemistry and Biophysics Reports, 2015)

Tested on: maltase
Assay: GOD-PAP glucose release assay, Lineweaver-Burk plot
Type: biochemical, Bacillus licheniformis
Conditions: free (soluble) enzyme, partially purified; maltose 2.5-50 mM; pH and temperature of the kinetics not stated

Km: 1.71 mM ml^−1
Structure (SMILES): OC[C@H]1O[C@H](O[C@H]2[C@H](O)[C@@H](O)C(O)O[C@@H]2CO)[C@H](O)[C@@H](O)[C@@H]1O (stereo partly shown) [maltose]
